Source: the NIST ThermoML archive (doi:10.1016/j.jct.2017.03.033)

Assay: molar heat capacity at constant pressure
Settings: Liquid, Flow calorimetry

CC(C)C [2-methylpropane]
Settings	molar heat capacity at constant pressure [J/K/mol]
303.53 K, 1050 kPa	142.52
303.55 K, 1540 kPa	141.88
303.56 K, 2000 kPa	141.53
303.56 K, 3020 kPa	140.13
303.57 K, 2500 kPa	140.83
303.59 K, 9990 kPa	135.77
303.62 K, 4030 kPa	139.55
303.62 K, 4500 kPa	139.32
303.62 K, 6500 kPa	138.1
303.62 K, 7990 kPa	136.88
303.63 K, 6010 kPa	138.45
303.63 K, 7030 kPa	137.69
303.63 K, 7530 kPa	137.34
303.63 K, 8510 kPa	136.7
303.63 K, 9510 kPa	136.24
303.64 K, 5000 kPa	139.03
303.64 K, 9000 kPa	136.47
303.65 K, 5520 kPa	138.8
303.7 K, 3480 kPa	139.78
303.82 K, 11510 kPa	134.38
303.82 K, 12000 kPa	134.2
303.86 K, 10530 kPa	135.37
303.86 K, 11040 kPa	134.96
313.48 K, 1040 kPa	142.81
313.48 K, 6480 kPa	138.39
313.49 K, 3020 kPa	141.12
313.49 K, 7500 kPa	138.1
313.5 K, 5530 kPa	139.09
313.5 K, 6030 kPa	138.56
313.5 K, 7030 kPa	138.27
313.5 K, 8040 kPa	137.81
313.5 K, 8480 kPa	137.69
313.51 K, 1540 kPa	142.46
313.51 K, 2020 kPa	141.93
313.51 K, 2540 kPa	141.53
313.51 K, 4010 kPa	140.6
313.51 K, 9020 kPa	137.52
313.52 K, 4500 kPa	140.07
313.52 K, 9480 kPa	137.34
313.52 K, 10060 kPa	137.28
313.54 K, 5080 kPa	139.26
313.55 K, 10530 kPa	136.59
313.57 K, 11480 kPa	136.3
313.57 K, 12050 kPa	136.12
313.58 K, 3550 kPa	140.95
313.58 K, 11070 kPa	136.47
323.11 K, 1040 kPa	146.53
323.16 K, 1510 kPa	146.24
323.22 K, 2020 kPa	145.77
323.23 K, 3510 kPa	144.03
323.24 K, 2540 kPa	145.01
323.25 K, 3020 kPa	144.49
323.25 K, 4020 kPa	143.62
323.27 K, 10500 kPa	139.49
323.28 K, 4550 kPa	143.33
323.28 K, 10980 kPa	139.44
323.3 K, 4970 kPa	143.04
323.31 K, 11540 kPa	139.38
323.32 K, 5500 kPa	142.69
323.32 K, 5980 kPa	142.17
323.33 K, 6470 kPa	141.7
323.33 K, 7020 kPa	141.3
323.34 K, 11990 kPa	139.2
323.35 K, 7470 kPa	141.24
323.37 K, 7990 kPa	141
323.37 K, 9480 kPa	140.07
323.38 K, 8510 kPa	140.77
323.38 K, 9990 kPa	139.67
323.39 K, 9000 kPa	140.42
333.64 K, 1050 kPa	151.06
333.65 K, 10550 kPa	143.33
333.65 K, 10920 kPa	143.21
333.66 K, 5960 kPa	145.65
333.66 K, 11520 kPa	143.15
333.67 K, 4020 kPa	147.05
333.67 K, 4480 kPa	146.76
333.67 K, 9460 kPa	143.5
333.67 K, 11930 kPa	143.15
333.68 K, 10010 kPa	143.62
333.69 K, 1530 kPa	150.48
333.69 K, 5010 kPa	146.41
333.69 K, 7030 kPa	145.31
333.7 K, 5530 kPa	146.12
333.7 K, 6520 kPa	145.54
333.71 K, 3530 kPa	147.63
333.71 K, 8510 kPa	144.43
333.72 K, 2020 kPa	149.84
333.72 K, 2520 kPa	149.2
333.72 K, 8970 kPa	144.38
333.73 K, 3050 kPa	148.79
333.73 K, 7550 kPa	145.13
333.74 K, 8040 kPa	145.13
343.71 K, 1520 kPa	159.49
343.76 K, 2030 kPa	157.92
343.79 K, 3510 kPa	155.13
343.81 K, 2530 kPa	157.34
343.81 K, 3030 kPa	155.65
343.83 K, 4010 kPa	154.02
343.84 K, 5010 kPa	153.09
343.85 K, 4530 kPa	153.62
343.85 K, 6000 kPa	151.06
343.85 K, 7500 kPa	149.49
343.85 K, 8000 kPa	148.27
343.85 K, 8500 kPa	147.98
343.85 K, 10990 kPa	145.77
343.85 K, 12010 kPa	145.07
343.86 K, 5490 kPa	151.93
343.86 K, 6530 kPa	150.36
343.86 K, 10020 kPa	146.82
343.86 K, 11480 kPa	145.48
343.87 K, 9000 kPa	147.51
343.87 K, 10510 kPa	146.47
343.88 K, 7020 kPa	150.07
343.88 K, 9490 kPa	147.4
353.82 K, 2510 kPa	163.9
353.85 K, 3020 kPa	162.57
353.85 K, 9000 kPa	152.16
353.85 K, 9500 kPa	151.7
353.86 K, 4510 kPa	158.62
353.87 K, 4990 kPa	158.09
353.87 K, 6010 kPa	156.06
353.87 K, 7000 kPa	153.97
353.87 K, 8520 kPa	152.22
353.87 K, 10000 kPa	151.35
353.87 K, 10510 kPa	151
